Measurements reported in ChEMBL document CHEMBL1145989, “Development of a water-soluble matrix metalloproteinase inhibitor as an intra-arterial infusion drug for prevention of restenosis after angioplasty” (J Med Chem, 2003).
pIC50: −log10 of the molar value.

Columns and labels:
[1] = target: Matrix metalloproteinase-9 (Homo sapiens, UniProt P14780); test: Inhibition of human Matrix metalloprotease-9 (MMP-9)
[2] = target: Macrophage metalloelastase (Homo sapiens, UniProt P39900); test: Inhibition of human Matrix metalloprotease-12 (MMP-12)
[3] = target: 72 kDa type IV collagenase (Homo sapiens, UniProt P08253); test: Inhibition of human Matrix metalloprotease-2 (MMP-2)
Chain of 72 kDa type IV collagenase (P08253 whole entry): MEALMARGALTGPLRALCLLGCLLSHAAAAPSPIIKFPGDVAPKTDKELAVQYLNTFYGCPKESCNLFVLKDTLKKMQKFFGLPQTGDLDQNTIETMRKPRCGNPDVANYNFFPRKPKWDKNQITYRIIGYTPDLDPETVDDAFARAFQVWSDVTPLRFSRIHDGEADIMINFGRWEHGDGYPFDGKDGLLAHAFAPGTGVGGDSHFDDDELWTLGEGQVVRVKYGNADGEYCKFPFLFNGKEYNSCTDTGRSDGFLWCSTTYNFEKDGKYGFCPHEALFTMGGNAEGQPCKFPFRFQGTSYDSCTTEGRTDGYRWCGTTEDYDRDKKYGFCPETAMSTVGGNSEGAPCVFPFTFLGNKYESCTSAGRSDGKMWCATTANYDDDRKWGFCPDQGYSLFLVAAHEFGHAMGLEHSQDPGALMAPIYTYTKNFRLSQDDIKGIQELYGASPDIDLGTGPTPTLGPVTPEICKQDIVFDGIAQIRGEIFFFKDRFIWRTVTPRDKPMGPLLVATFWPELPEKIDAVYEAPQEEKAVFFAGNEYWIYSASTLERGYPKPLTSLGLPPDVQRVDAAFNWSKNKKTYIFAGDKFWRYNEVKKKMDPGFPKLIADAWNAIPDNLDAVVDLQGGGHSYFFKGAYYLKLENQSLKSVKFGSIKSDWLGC

Chain of Matrix metalloproteinase-9 (P14780 whole entry): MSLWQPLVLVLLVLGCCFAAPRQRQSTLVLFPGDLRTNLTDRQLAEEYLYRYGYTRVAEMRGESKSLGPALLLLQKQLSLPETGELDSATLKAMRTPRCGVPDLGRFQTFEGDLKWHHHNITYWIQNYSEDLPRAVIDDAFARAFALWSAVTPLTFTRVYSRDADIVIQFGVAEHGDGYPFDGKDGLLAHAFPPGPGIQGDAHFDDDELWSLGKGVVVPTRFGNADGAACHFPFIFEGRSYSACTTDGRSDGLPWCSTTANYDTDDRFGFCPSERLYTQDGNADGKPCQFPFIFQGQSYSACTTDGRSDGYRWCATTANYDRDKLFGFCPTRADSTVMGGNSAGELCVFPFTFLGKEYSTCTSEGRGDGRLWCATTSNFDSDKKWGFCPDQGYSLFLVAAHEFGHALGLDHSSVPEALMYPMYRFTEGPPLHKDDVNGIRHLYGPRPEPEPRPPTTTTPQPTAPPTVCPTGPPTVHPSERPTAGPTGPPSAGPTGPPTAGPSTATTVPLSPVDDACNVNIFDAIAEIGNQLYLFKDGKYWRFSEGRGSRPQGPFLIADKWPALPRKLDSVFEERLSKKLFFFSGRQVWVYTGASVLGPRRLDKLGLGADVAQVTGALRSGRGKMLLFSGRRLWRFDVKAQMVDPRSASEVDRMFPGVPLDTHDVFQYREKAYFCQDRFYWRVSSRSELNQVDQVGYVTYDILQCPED
Chain of Macrophage metalloelastase (P39900 whole entry): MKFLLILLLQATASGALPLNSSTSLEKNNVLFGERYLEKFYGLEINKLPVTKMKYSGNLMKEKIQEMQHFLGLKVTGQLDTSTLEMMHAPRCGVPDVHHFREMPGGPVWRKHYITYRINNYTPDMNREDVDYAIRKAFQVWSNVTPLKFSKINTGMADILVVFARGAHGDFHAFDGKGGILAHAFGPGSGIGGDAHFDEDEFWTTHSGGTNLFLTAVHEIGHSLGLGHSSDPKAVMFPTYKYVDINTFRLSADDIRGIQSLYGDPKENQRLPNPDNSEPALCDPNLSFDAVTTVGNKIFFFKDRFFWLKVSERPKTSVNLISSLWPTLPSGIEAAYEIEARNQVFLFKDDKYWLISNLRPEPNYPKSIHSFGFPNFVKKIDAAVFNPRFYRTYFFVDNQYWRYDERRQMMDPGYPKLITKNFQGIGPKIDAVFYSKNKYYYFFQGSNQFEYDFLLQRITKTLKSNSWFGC

Row | Compound | pIC50 [1] | pIC50 [2] | pIC50 [3]
1 | C[C@@H](C[C@@H](COC(=O)CCC(=O)O)NC(=O)c1ccc(Oc2ccccc2)cc1)C(=O)NO | 8.55 | 8.59 | 8.96
2 | C[C@@H](C[C@@H](CO)NC(=O)c1ccc(Oc2ccccc2)cc1)C(=O)NO | 9.10 | 8.46 | 9.19
